In one experiment the target is T1, rM1 (Rattus norvegicus, UniProt P08482).
T1 construct: host or cells: CHO-K1
T1 sequence (P08482 1-460): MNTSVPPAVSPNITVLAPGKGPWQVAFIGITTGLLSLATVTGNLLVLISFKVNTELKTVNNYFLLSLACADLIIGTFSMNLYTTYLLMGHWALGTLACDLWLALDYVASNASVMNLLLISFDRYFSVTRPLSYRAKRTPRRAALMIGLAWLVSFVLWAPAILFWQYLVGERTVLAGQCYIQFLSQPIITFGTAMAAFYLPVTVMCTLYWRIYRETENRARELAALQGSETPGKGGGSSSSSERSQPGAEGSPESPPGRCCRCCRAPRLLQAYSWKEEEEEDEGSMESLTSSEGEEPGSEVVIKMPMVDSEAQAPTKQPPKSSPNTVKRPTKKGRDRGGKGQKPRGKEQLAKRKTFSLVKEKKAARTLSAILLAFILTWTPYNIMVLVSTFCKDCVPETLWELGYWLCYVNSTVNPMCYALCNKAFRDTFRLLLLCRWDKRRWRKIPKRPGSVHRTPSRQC
The experiment can be described thus: Calcium mobilization assay in CHO-K1 cells stably expressing rat M1 (low throughput, Flexstation II). Type of experiment: cell-based. As to conditions: for Emax: RM1, read-out: Efficacy (% Max ACh). The text has this:
(§1) Chinese hamster ovary (CHO-K1) cells stably expressing rat (r) M1 were purchased from the American Type Culture Collection and cultured according to their indicated protocol. CHO cells stably expressing human (h)M2, hM3, and hM5 were described previously (Levey et al., 1991); hM1 and hM4 cDNAs were purchased from Missouri S&T cDNA Resource; rM4 cDNA was provided by T. I. Bonner (National Institutes of Health, Bethesda, Md.). hM1, hM4, and rM4 cDNAs were used to stably transfect CHO-K1 cells purchased from the American Type Culture Collection using Lipofectamine2000. To make stable hM2, hM4 and rM4 cell lines for use in calcium mobilization assays, these cells also were stably transfected with a chimeric G-protein (Gqi5) (provided by B. R. Conklin, University of California, San Francisco) using Lipofectamine 2000. rM1, hM3, and hM5 cells were grown in Ham's F-12 medium containing 10% heat-inactivated fetal bovine serum (FBS), 20 mM HEPES, and 50 μg/mL G418 sulfate. hM2-Gqi5 and hM4-Gqi5 cells were grown in the same medium also containing 500 μg/mL Hygromycin B. Stable rM4-Gqi5 cells were grown in DMEM containing 10% heat-inactivated FBS, 20 mM HEPES, 400 μg/mL G418 sulfate, and 500 μg/mL Hygromycin B. The rat M1 Y381A orthosteric mutant receptor cDNA was generated using the Quik-Change site-directed mutagenesis kit (Stratagene) and verified by sequencing. CHO-K1 cells were stably transfected with this cDNA using Lipofectamine2000 and screened for expression based on calcium mobilization in response to the allosteric M1 agonist N-desmethylclozapine.
For low throughput measurement of agonist-evoked increases in intracellular calcium, CHO-K1 cells stably expressing muscarinic receptors were plated in 100 μL of growth medium at 5×10^4 (rM1, hM3, and hM5) or 6×10^4 cells per well (rM1 Y381A, hM2, and rM4) in Costar 96-well black-walled, tissue culture (TC)-treated, clear-bottom plates (Fisher). Cells were incubated overnight at 37° C. and 5% CO2. The next day, medium was removed from the cells, and they were incubated with 50 μL of 2 μM Fluo-4/acetoxymethyl ester (Invitrogen, Carlsbad, Calif.) prepared as a 2.3 mM stock in DMSO and mixed in a 1:1 ratio with 10% (w/v) Pluronic F-127 and diluted in assay buffer [HBSS (Invitrogen) supplemented with 20 mM HEPES and 2.5 mM probenecid, pH 7.4] for 1 h at 37° C. and 5% CO2. Dye was removed and replaced with 50 μL of assay buffer. For calcium fluorescence measurements, CRCs of compounds (50 μl, 2×) were added 19 s after the beginning of data collection via a Flexstation II (Molecular Devices, Sunnyvale, Calif.). Fluorescence imaging continued for a total of 130 s acquisition time using an excitation wavelength of 488 nm, an emission wavelength of 525 nm, and a cutoff wavelength of 515 nm. All of the peaks of the calcium response were normalized to the response to a maximally effective concentration of ACh (ECmax). These normalized peak calcium response values were fit using GraphPad Prism version 4.0 to a four-parameter logistic equation to determine EC50 values.

The target of the next experiment is T2, hM1 (Homo sapiens, UniProt P11229).
T2 construct: host or cells: CHO-K1
T2 sequence (P11229 1-460): T1 sequence (P08482 1-460) with V5A, S254T, S309P, K320R, G337A, V413I
The experiment can be described thus: Calcium mobilization assay in CHO-K1 cells stably expressing human M1 (high throughput, FDSS 6000). As to conditions: for Emax: HM1, read-out: Efficacy (% Max ACh). It counts as cell-based.
Description: as §1
For high throughput measurement of agonist-evoked increases in intracellular calcium, CHO-K1 cells stably expressing muscarinic receptors were plated in growth medium lacking G418 and hygromycin at 15,000 cells/20 μL/well (hM1, hM2-Gqi5, hM3, hM4-Gqi5, and hM5) in Greiner 384-well black-walled, tissue culture (TC)-treated, clear-bottom plates (VWR). Cells were incubated overnight at 37° C. and 5% CO2. The next day, cells were washed using an ELX 405 (BioTek) with three washes (50 μL) of assay buffer then aspirated to 15 μL. Next, 5 μL of 8 μM Fluo-4/acetoxymethyl ester (Invitrogen, Carlsbad, Calif.) prepared as a 2.3 mM stock in DMSO and mixed in a 1:1 ratio with 10% (w/v) Pluronic F-127 and diluted in assay buffer was added to the wells and the cell plates were incubated for 45 min at 37° C. and 5% CO2. Dye was removed by washing with the ELX 405 (three 50 μL washes of assay buffer) then aspirated to 20 μL. Agonist and compound master plates were formatted in an 11 point CRC format (1:3 dilutions) in 100% DMSO with a starting concentration of 10 mM using the BRAVO liquid handler (Agilent). Test compound CRCs were then transferred to daughter plates ([…]) using the Echo acoustic plate reformatter (Labcyte, Sunnyvale, Calif.) and then diluted into assay buffer (40 μL) to a 2× stock using a Thermo Fisher Combi (Thermo Fisher Scientific, Waltham, Mass.). Calcium flux was measured using the Functional Drug Screening System (FDSS) 6000 (Hamamatsu Corporation, Tokyo, Japan) as an increase in the fluorescent static ratio. 20 μL of Agonist Compounds were applied to cells using the automated system of the FDSS 6000 at 4 s into the 300 s protocol and the data were collected at 1 Hz. Concentration-response curves were generated using a four-parameter logistical equation in XLfit curve fitting software (IDBS, Bridgewater, N.J.) for Excel (Microsoft, Redmond, Wash.) or Prism (GraphPad Software, Inc., San Diego, Calif.).

The mark [1] stands for this setting: agonist-evoked calcium mobilization, CHO-K1 hM1 cells, read-out: hM1 Potency (EC50).
The mark [2] stands for this setting: agonist-evoked calcium mobilization, CHO-K1 rM1 cells, read-out: rM1 Potency (EC50).

Where a chain is given by its changes, count along the chain named. Read-outs that look alike come from different tables or passages of the source.

In the case of `CCOC(=O)N1C2CCC1CC(N1CCC[C@@H](NC(=O)c3cccc(C)c3)C1)C2` (stereo partly drawn) [Example 6, ethyl 3-((R)-3-(3-methylbenzamido)piperidin-1-yl)-8-azabicyclo[3.2.1]octane-8-carboxylate], on rM1, the 50% effective concentration (EC50) worked out at 41 nM and the Emax turned out to be 94%.

As for `CCOC(=O)N1C2CCC1CC(N1CC[C@@H](NC(=O)c3ccccc3)C1)C2` (stereo partly drawn) [Example 17, ethyl 3-((R)-3-benzamidopyrrolidin-1-yl)-8-azabicyclo[3.2.1]octane-8-carboxylate], the Emax on hM1 amounted to 54%. Moreover, at hM1 (setting [1]), the half-maximal effective concentration (EC50) came to 160 nM.

Consider `CCOC(=O)N1C2CCC1CC(N1CCC[C@@H](NC(=O)OC(C)(C)C)C1)C2` (stereo partly drawn) [Example 1, ethyl 3-((R)-3-((tert-butoxycarbonyl)amino)piperidin-1-yl)-8-azabicyclo[3.2.1]octane-8-carboxylate], for which the Emax came to 74% at rM1 and 29% on hM1. For the same compound, the EC50 on rM1 (setting [2]) was found to be 267 nM; on hM1 (setting [1]), 2000 nM.

Regarding `CCOC(=O)N1C2CCC1CC(N1CCC[C@@H](NC(=O)c3ccccc3F)C1)C2` (stereo partly drawn) [Example 13, ethyl 3-((R)-3-(2-fluorobenzamido)piperidin-1-yl)-8-azabicyclo[3.2.1]octane-8-carboxylate], the Emax on hM1 was found to be 38%. For the same compound, at hM1 (setting [1]), the EC50 was 4200 nM.

`CCOC(=O)N1C2CCC1CC(N1CCC[C@@H](NC(=O)c3ccc(F)cc3F)C1)C2` (stereo partly drawn) [Example 5, ethyl 3-((R)-3-(2,4-difluorobenzamido)piperidin-1-yl)-8-azabicyclo[3.2.1]octane-8-carboxylate]: on rM1, the EC50 came to 69 nM and the Emax is 89%.

With `CCOC(=O)N1C2CCC1CC(N1CCC[C@@H](NC(=O)c3c(F)cccc3F)C1)C2` (stereo partly drawn) [Example 15, ethyl 3-((R)-3-(2,6-difluorobenzamido)piperidin-1-yl)-8-azabicyclo[3.2.1]octane-8-carboxylate], the Emax on hM1 was 66%. Further, the EC50 on hM1 (setting [1]) is 330 nM.

In the case of `CCOC(=O)N1C2CCC1CC(N1CCC[C@@H](NC(=O)c3ccc(F)c(C)c3)C1)C2` (stereo partly drawn) [Example 8, ethyl 3-((R)-3-(4-fluoro-3-methylbenzamido)piperidin-1-yl)-8-azabicyclo[3.2.1]octane-8-carboxylate], at rM1, the EC50 stood at 48 nM and the Emax turned out to be 93%.

Consider `CCOC(=O)N1C2CCC1CC(N1CCC[C@@H](NC(=O)c3ccc(F)cc3Cl)C1)C2` (stereo partly drawn) [Example 14, ethyl 3-((R)-3-(2-chloro-4-fluorobenzamido)piperidin-1-yl)-8-azabicyclo[3.2.1]octane-8-carboxylate], for which the Emax on hM1 was found to be 68%. In addition, the EC50 at hM1 (setting [1]) was found to be 620 nM.

As for `CCOC(=O)N1C2CCC1CC(N1CCC[C@@H](NC(=O)c3ccccc3Cl)C1)C2` (stereo partly drawn) [Example 7, ethyl 3-((R)-3-(2-chlorobenzamido)piperidin-1-yl)-8-azabicyclo[3.2.1]octane-8-carboxylate], at rM1, the concentration for a half-maximal effect (EC50) was 39 nM and the Emax is 94%. Moreover, on hM1, the EC50 worked out at 570 nM and the Emax is 61%.

For the compound `CCOC(=O)N1C2CCC1CC(N1CCC[C@@H](NC(=O)c3cccc(OC)c3)C1)C2` (stereo partly drawn) [Example 4, ethyl 3-((R)-3-(3-methoxybenzamido)piperidin-1-yl)-8-azabicyclo[3.2.1]octane-8-carboxylate], the figures for the EC50 on rM1 and on hM1 were 52 nM and 250 nM, respectively. Further, the figures for the Emax at rM1 and on hM1 were 94% and 76%, respectively.

As for `CCOC(=O)N1C2CCC1CC(N1CCC[C@@H](NC(=O)c3ccc(F)c(F)c3)C1)C2` (stereo partly drawn) [Example 12, ethyl 3-((R)-3-(3,4-difluorobenzamido)piperidin-1-yl)-8-azabicyclo[3.2.1]octane-8-carboxylate], the Emax at hM1 was found to be 68%. Besides, the EC50 on hM1 (setting [1]) is 750 nM.

For the compound `CCOC(=O)N1C2CCC1CC(N1CCC[C@@H](NC(=O)c3cc(Cl)ccc3F)C1)C2` (stereo partly drawn) [Example 11, ethyl 3-((R)-3-(5-chloro-2-fluorobenzamido)piperidin-1-yl)-8-azabicyclo[3.2.1]octane-8-carboxylate], the Emax at rM1 was 65%. On rM1 (setting [2]), the EC50 turned out to be 590 nM.

Turning to `CCOC(=O)N1C2CCC1CC(N1CC[C@@H](NC(=O)c3ccccc3C)C1)C2` (stereo partly drawn) [Example 16, ethyl 3-((R)-3-(2-methylbenzamido)pyrrolidin-1-yl)-8-azabicyclo[3.2.1]octane-8-carboxylate], the Emax at hM1 turned out to be 57%. The EC50 on hM1 (setting [1]) was 940 nM.

As to `CCOC(=O)N1C2CCC1CC(N1CCC[C@@H](NC(=O)c3ccc(F)cc3)C1)C2` (stereo partly drawn) [Example 9, ethyl 3-((R)-3-(4-fluorobenzamido)piperidin-1-yl)-8-azabicyclo[3.2.1]octane-8-carboxylate], on rM1, the EC50 was 38 nM and the Emax was found to be 95%.

For the compound `CCOC(=O)N1C2CCC1CC(N1CCC[C@@H](NC(=O)c3cc(F)cc(F)c3)C1)C2` (stereo partly drawn) [Example 10, ethyl 3-((R)-3-(3,5-difluorobenzamido)piperidin-1-yl)-8-azabicyclo[3.2.1]octane-8-carboxylate], on rM1, the EC50 stood at 96 nM and the Emax was 90%.

Values taken from patent publication US20130197027A1, “HETEROCYCLYL-AZABICYCLO[3.2.1]OCTANE ANALOGS AS SELECTIVE M1 AGONISTS AND METHODS OF MAKING AND USING SAME” (priority 2010, published 2013).
